Measured values as given in the supplement of paper PMC6045584.
± gives the standard deviation of the averaged measurements.

How the values were obtained:
[1] = compound: T1, Nc1nc2[nH]cnc2c(=S)[nH]1 [TIOGUANINE]; test: area under dose-response curve of surviving fraction (unscaled, Aref=0) (surviving fraction x log10(nM)); higher = more resistant; conditions: exposure time: 5 days; dose range 0.5-1000 nM
Procedure, shortened: (§1)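 Three screens per tumour cell line were run in 384-well plates at eight inhibitor concentrations from 0.5 to 1000 nM over five days. Surviving fractions, from CellTiter-Glo luminescence normalised to DMSO-only wells, were fitted with 3-parameter logistic curves in the drc R package. The reported area under the curve is the unscaled activity area. It spans log10 dose, and Aref is 0.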

[2] = compound: T2, CNC(=O)c1ccc(N2C(=S)N(c3ccc(C#N)c(C(F)(F)F)c3)C(=O)C2(C)C)cc1F [MDV3100]; test: as above; conditions: exposure time: 5 days; dose range 0.5-1000 nM
Procedure, shortened: as §1

[3] = compound: T3, CC[C@@H]1C(=O)N(C)c2cnc(Nc3ccc(C(=O)NC4CCN(C)CC4)cc3OC)nc2N1C1CCCC1 [BI-2536]; test: as above; conditions: exposure time: 5 days; dose range 0.5-1000 nM
Procedure, shortened: as §1

[4] = compound: T4, CC1(C)CC(=O)c2c(C(F)(F)F)nn(-c3ccc(C(N)=O)c(N[C@H]4CC[C@H](OC(=O)CN)CC4)c3)c2C1 [SNX-5422]; test: as above; conditions: exposure time: 5 days; dose range 0.5-1000 nM
Procedure, shortened: as §1

[5] = compound: Cn1cc(C2=Nc3cc(NC(=O)C(N)C4CCCCC4)cc4c3C2=CNNC4=O)cn1; test: as above; conditions: exposure time: 5 days; dose range 0.5-1000 nM
Procedure, shortened: as §1

[6] = compound: T5, CN(C)C/C=C/C(=O)Nc1cc2c(Nc3ccc(F)c(Cl)c3)ncnc2cc1O[C@H]1CCOC1 [AFATINIB]; test: as above; conditions: exposure time: 5 days; dose range 0.5-1000 nM
Procedure, shortened: as §1

[7] = compound: T6, CCCCCCCCCCCCCCCC(=O)Nc1ccn([C@@H]2O[C@H](CO)[C@@H](O)[C@@H]2C#N)c(=O)n1 [SAPACITABINE]; test: as above; conditions: exposure time: 5 days; dose range 0.5-1000 nM
Procedure, shortened: as §1

[8] = compound: T1, TIOGUANINE; test: surviving fraction relative to DMSO-only wells; higher = less growth inhibition; conditions: exposure time: 5 days
Procedure, shortened: (§2)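 Viability was scored with CellTiter-Glo luminescence and normalised to the median of DMSO-only wells as surviving fraction. Beforehand, log-phase tumour cell lines were seeded at 250–500 cells per well in 384-well plates, allowed 24 hours, and exposed continuously for five days to inhibitors at 0.5, 1, 5, 10, 50, 100, 500 and 1000 nM. Only lines whose three screens gave replicate Pearson r >0.7 and median Z' >0.3 were kept.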

[9] = compound: T2, MDV3100; test: as above; conditions: exposure time: 5 days
Procedure, shortened: as §2

[10] = compound: C=CC(=O)Nc1cc2c(Nc3ccc(F)c(Cl)c3)ncnc2cc1OCCCN1CCOCC1 [CANERTINIB]; test: as above; conditions: exposure time: 5 days
Procedure, shortened: as §2

[11] = compound: T3, BI-2536; test: as above; conditions: exposure time: 5 days
Procedure, shortened: as §2

[12] = compound: T4, SNX-5422; test: as above; conditions: exposure time: 5 days
Procedure, shortened: as §2

[13] = compound: Cn1cc(C2=Nc3cc(NC(=O)C(N)C4CCCCC4)cc4c3C2=CNNC4=O)cn1; test: as above; conditions: exposure time: 5 days
Procedure, shortened: as §2

[14] = compound: T5, AFATINIB; test: as above; conditions: exposure time: 5 days
Procedure, shortened: as §2

[15] = compound: T6, SAPACITABINE; test: as above; conditions: exposure time: 5 days
Procedure, shortened: as §2

LNCAP PROSTATE
area under dose-response curve [1]: 3.21
area under dose-response curve [2]: 3.01
area under dose-response curve [3]: 0.892
area under dose-response curve [4]: 1.64
area under dose-response curve [5]: 3.06
area under dose-response curve [6]: 3.17
area under dose-response curve [7]: 2.15
surviving fraction ([8]; 0.5 nM): 0.933 ± 0.078
surviving fraction ([8]; 1 nM): 0.912 ± 0.028
surviving fraction ([8]; 5 nM): 0.955 ± 0.17
surviving fraction ([8]; 10 nM): 0.964 ± 0.09
surviving fraction ([8]; 50 nM): 1.07 ± 0.11
surviving fraction ([8]; 100 nM): 0.976 ± 0.085
surviving fraction ([8]; 500 nM): 0.971 ± 0.06
surviving fraction ([8]; 1000 nM): 0.977 ± 0.07
surviving fraction ([9]; 0.5 nM): 1.05 ± 0.15
surviving fraction ([9]; 1 nM): 0.962 ± 0.035
surviving fraction ([9]; 5 nM): 0.912 ± 0.089
surviving fraction ([9]; 10 nM): 0.957 ± 0.13
surviving fraction ([9]; 50 nM): 0.979 ± 0.012
surviving fraction ([9]; 100 nM): 0.925 ± 0.053
surviving fraction ([9]; 500 nM): 0.663 ± 0.033
surviving fraction ([9]; 1000 nM): 0.497 ± 0.079
surviving fraction ([10]; 0.5 nM): 1.1 ± 0.078
surviving fraction ([10]; 1 nM): 1 ± 0.059
surviving fraction ([10]; 5 nM): 1.09 ± 0.06
surviving fraction ([10]; 10 nM): 1.08 ± 0.036
surviving fraction ([10]; 50 nM): 1.01 ± 0.057
surviving fraction ([10]; 100 nM): 1.04 ± 0.055
surviving fraction ([10]; 500 nM): 0.935 ± 0.093
surviving fraction ([10]; 1000 nM): 0.782 ± 0.086
surviving fraction ([11]; 0.5 nM): 1.05 ± 0.099
surviving fraction ([11]; 1 nM): 1.03 ± 0.08
surviving fraction ([11]; 5 nM): 0.0577 ± 0.0084
surviving fraction ([11]; 10 nM): 0.0533 ± 0.0055
surviving fraction ([11]; 50 nM): 0.113 ± 0.018
surviving fraction ([11]; 100 nM): 0.115 ± 0.028
surviving fraction ([11]; 500 nM): 0.141 ± 0.022
surviving fraction ([11]; 1000 nM): 0.112 ± 0.013
surviving fraction ([12]; 0.5 nM): 0.905 ± 0.09
surviving fraction ([12]; 1 nM): 0.969 ± 0.13
surviving fraction ([12]; 5 nM): 0.79 ± 0.043
surviving fraction ([12]; 10 nM): 0.774 ± 0.12
surviving fraction ([12]; 50 nM): 0.19 ± 0.022
surviving fraction ([12]; 100 nM): 0.124 ± 0.0057
surviving fraction ([12]; 500 nM): 0.05 ± 0.004
surviving fraction ([12]; 1000 nM): 0.06 ± 0.0072
surviving fraction ([13]; 0.5 nM): 0.922 ± 0.12
surviving fraction ([13]; 1 nM): 1.11 ± 0.11
surviving fraction ([13]; 5 nM): 0.926 ± 0.14
surviving fraction ([13]; 10 nM): 0.915 ± 0.15
surviving fraction ([13]; 50 nM): 1.23 ± 0.052
surviving fraction ([13]; 100 nM): 1.06 ± 0.12
surviving fraction ([13]; 500 nM): 0.544 ± 0.024
surviving fraction ([13]; 1000 nM): 0.287 ± 0.031
surviving fraction ([14]; 0.5 nM): 1.03 ± 0.093
surviving fraction ([14]; 1 nM): 0.998 ± 0.083
surviving fraction ([14]; 5 nM): 0.995 ± 0.062
surviving fraction ([14]; 10 nM): 0.922 ± 0.073
surviving fraction ([14]; 50 nM): 0.892 ± 0.11
surviving fraction ([14]; 100 nM): 1.01 ± 0.069
surviving fraction ([14]; 500 nM): 0.854 ± 0.1
surviving fraction ([14]; 1000 nM): 0.649 ± 0.051
surviving fraction ([15]; 0.5 nM): 1.04 ± 0.033
surviving fraction ([15]; 1 nM): 1.09 ± 0.059
surviving fraction ([15]; 5 nM): 0.998 ± 0.053
surviving fraction ([15]; 10 nM): 0.913 ± 0.031
surviving fraction ([15]; 50 nM): 0.51 ± 0.012
surviving fraction ([15]; 100 nM): 0.329 ± 0.035
surviving fraction ([15]; 500 nM): 0.208 ± 0.014
surviving fraction ([15]; 1000 nM): 0.159 ± 0.012
